Measured values taken from patent US12338263B2, “Antibacterial aminoglycoside derivatives” (priority 2019, dated 2025).
≈ marks a conversion by molar mass, not a printed value. Like-named read-outs stand apart in the source and are kept apart here.

Tests used:
[1] = system: auditory function in guinea pigs; assay: Auditory safety: compound action potential (CAP) in guinea pigs; type: in vivo
Method: (§1) Healthy adult guinea pigs (150-250 g) were employed as the research objects, and were randomly divided into saline control group, gentamicin group, compound Plazomicin group and Compound 1 group, with 8 animals in each group. Subcutaneous administration is used, and the following assays were carried out during and after the administration for 14 consecutive days: • 1. To analyze the effects of different drugs on the auditory function of guinea pigs, the compound action potential (CAP) of animals was recorded on the 14th day (29th day, i.e., 4 weeks) after administration. The results obtained were analyzed and the changes of the threshold shift, amplitude, latency and other indicators among different treatment groups were compared. • 2. After the different groups of animals were processed and the auditory function data thereof were collected, the cochlea of the animals was taken out for fixation and staining. Surface preparation of basilar membrane of the cochlea on one side was performed to count the loss of hair cells so as to make a cochlea map, and the cochlea on the other side was decalcified and frozen sectioned. The density of spiral ganglion neurons was counted and compared among groups. Research Results: 1. Administration Method and Treatment
(§2) Gentamicin from Dalian Meilun Biotechnology Co., Ltd., and Plazomicin and Compound 1 from WuXi AppTec (WuHan) Co., Ltd. are used, the solution of which were prepared just before use each time by using saline for dissolution to the concentration of 50 mg/mL, and the injection dose was 100 mg/kg body weight. Method: subcutaneous injection, and confirmation of no liquid leakage after each injection.
The compound action potential (CAP) was tested and recorded when clicks and different frequencies of pure tones (1 KHz-32 kHz) were applied to each group of animals, and variations in amplitude and latency were mainly compared when clicks and medium and high frequency pure tones (16, 32 kHz) were applied. The magnitude of amplitude reflects the responsiveness of hair cells and auditory nerves. The larger the amplitude and the greater the slope of the I/O curve were, the better the responsiveness and the better the function were. In addition, the cochlea from apical turn to basal turn was responsive to sounds from low-frequency to high-frequency respectively, which is the frequency correspondence of the cochlear basilar membrane. The functional changes to different frequencies correspond to the different structural and functional changes of the cochlea fromapical turn to basal turn. The length of latency was also related to the function of the hair cells and auditory nerve response. Generally speaking, increasing of the threshold value when the cochlea was injured would inevitably lead to the extension of latency. […] In other words, the extension of latency reflected the decrease of response function. The previous ototoxicity of aminoglycoside antibiotics was mainly concentrated in the high-frequency area. In this study, the gentamicin group was consistent with previous results, as summarized below.

[2] = system: cochlear hair cells; assay: Auditory safety: hair cell staining and counting on the basilar membrane of the cochlea; type: in vivo, guinea pigs
Method: as §1, §2
In order to compare the effects of different drugs on hair cells, hair cell staining and counting on the whole basilar membrane of the cochlea are performed. […] The Plazomicin group had 11.2-28.1% loss of outer hair cells in the high frequency (70-100% from the apical turn) and 16.7-24.2% loss of the outer hair cells at the beginning of the apical turn (10-20%). However, in the Compound 1 group, the loss of outer hair cells only occurred in the low-frequency region (from the top turn −40%), in which the loss rate of outer hair cells was about 2.5-11%, and the outer hair cells were relatively intact in the high frequency area (see FIG. 6 B).

[3] = system: spiral ganglion neurons; assay: Auditory safety: density of spiral ganglion neurons; type: in vivo, guinea pigs
Method: as §1, §2
The cochlea of the guinea pig was defined as Turn 1, Turn 2, Turn 3, and Turn 4 from the basal to the apical turn. The spiral ganglion neurons (SGNs) were stained with TuJ on frozen sections, and the density thereof in a specific area were counted and compared between groups. […] Through the two-way ANOVA, there was a significant difference between the groups, F(3, 74)=35.43, p<0.0001 (see FIG. 7).

[4] = Toxicity test on HK-2 cells (Alma Blue); type: cell-based; settings: human
Method: (§3) On the day of the experiment, when the HK-2 cells in the culture flask reached 80%-90% confluent, the culture medium was discarded, the cells were washed twice with Dulbecco's phosphate buffered saline (DPBS) and digested for 1 to 2 minutes with 3 mL trypsin (T150 cell culture flask), and immediately 9 ml complete medium (RPMI1640+10% FBS) were added to terminate the digestion. After termination, single cells suspension were formed by pipetting gently, which were centrifuged at 1000 […] for 5 minutes. The supernatant was discarded, and fresh complete medium were added, and the cells were pipetted evenly. The actual cell density was measured according to the cell counter and the cell suspension was adjusted to 2.5×10^5 cells/mL. 80 μL of cell suspension was drawn by a row pipettor and added into a 96-well black bottom plate (2×10^4 cell/well), and then incubated in a carbon dioxide incubator for 4.5 hours, which was defined as a cell plate.
(§4) • a. The compound mother liquor was prepared according to the following table, with complete medium as the solvent;
(§5) • b. 50 microliters of complete medium was added into columns 3-11 in the 96-v well plate; • c. 75 microliters of test compound (50 mg/mL) and positive control were added to the second column of the 96-v well plate; • d. 25 microliters of compound was drawn from the second column and added into the third column, blown and sucked a few times by a row pipettor, then 25 microliters of liquid was drawn from the third column and added to the fourth column, and subsequently subjected to a 3-fold series dilution until the 10th column. From column 2 to column 11, the compound concentration was 50, 16.67, 5.56, 1.85, 0.62, 0.21, 0.07, 0.02, 0.008, 0 mg/mL; • e. 20 μL compound solutions of various concentrations prepared were transferred by a row pipettor to the corresponding wells of the cell plate, which was defined as a testing plate. Culture of the Testing Plate:
(§6) All the plates were incubated in an incubator at 37° C., 5% CO2 for 43 hours.
(§7) After incubation, 10 microliters of Alma Blue was added to the testing plate. The testing plate was immediately incubated in an incubator at 37° C., 5% CO2 for 3 hours. Then the fluorescence value of each well of the testing plate was read by a microplate reader (wavelength Ex 540 nm/Em 585 nm). Then prism software was used to simulate the curve to calculate CC50 value.

[5] = system: HK-2 cells; assay: Toxicity test on HK-2 cells (Alma Blue); type: cell-based; settings: for Maximum inhibition rate: 43 hours incubation plus 3 hours Alma Blue
Method: as §3, §4, §5, §6, §7

[6] = system: Klebsiella pneumoniae ATCC-BAA-1705; assay: Drug efficacy in mice (mouse pneumonia model); type: in vivo; settings: CD-1 mice, 10 mpk and 30 mpk subcutaneously 2 h and 10 h after infection, read at 24 h; FIG. 2
Method: 21 CD-1 mice were divided into 7 cages, 3 mice per cage, and were injected intraperitoneally with the immunosuppressant cyclophosphamide (150 mpk) on the 4th day.
On the first day, 7 cages of mice were injected intraperitoneally again with the immunosuppressant cyclophosphamide (100 mpk). The strain Kpn ATCC-BAA-1705 (Klebsiella pneumoniae ATCC-BAA-1705) was recovered on a MHA plate. The recovered colonies were picked and dissolved in saline to prepare Kpn ATCC-BAA-1705 bacterial solution with a concentration of 4.00E+08 CFU/mL for later use in mouse lung infection. The amount of bacterial solution infected in the lung of experimental mice was 50 μL/mouse, that is, the inoculation amount was 2.00E+07 CFU/mouse. At 2 h and 24 h infection, the lung tissue of the mice in control group was taken and placed in 5 mL saline, homogenized, and dotted on a plate with gradient dilution.
The specific administration of mice was as follows: • (1) 2 h after infection: At the end of 2 h after infection, the lung tissue of the mice in the first cage was taken and placed in 5 mL saline, homogenized, and dotted on a plate with gradient dilution, two duplications for each mouse. The amount of bacteria loaded in the lung tissue of the mouse was counted. Mice in the third and fourth cages were injected respectively with 30 mpk and 10 mpk compound Plazomicin subcutaneously, mice in the fifth and sixth cages were injected respectively with 30 mpk and 10 mpk compound subcutaneously, and mice in the seventh cage were injected with 100 mpk meropenem subcutaneously. • (2) 10 h after infection: Mice in the third and fourth cages were injected respectively with 30 mpk and 10 mpk plazomicin subcutaneously, mice in the fifth and sixth cages were injected respectively with 30 mpk and 10 mpk compound 1 subcutaneously, and mice in the seventh cage were injected with 100 mpk meropenem subcutaneously. At the end of 24 h infection, the lung tissue of the mice in the second to seventh cages was taken and placed in 5 mL saline, homogenized, and dotted on a plate with gradient dilution, two duplications for each mouse. The amount of bacteria carried in the lung tissue of the mouse was counted, and the experimental results were summarized and shown in FIG. 2.

[7] = position 10 (% from the apical turn)
[8] = position 20 (% from the apical turn)
[9] = position 30 (% from the apical turn)
[10] = position 40 (% from the apical turn)
[11] = position 50 (% from the apical turn)
[12] = position 60 (% from the apical turn)
[13] = position 70 (% from the apical turn)
[14] = position 80 (% from the apical turn)
[15] = position 90 (% from the apical turn)
[16] = position 100 (% from the apical turn)
[17] = 43 hours incubation plus 3 hours Alma Blue, read-out: CC50 of HK-2 cell
[18] = predicted from toxicity regression curve, read-out: CC50 of compound on cells predicted by software (Prism)
[19] = guinea pig, in vivo, sc, 100 mg/kg
[20] = guinea pig, in vivo, sc, 100 mg/kg, 29 day

Gentamicin
CAP amplitude at 16 kHz ([1]; guinea pigs, 100 mg/kg subcutaneous 14 days, 29th day, 16 kHz, 90 dB): 373.329±15.332 uv | CAP amplitude at 32 kHz ([1]; guinea pigs, 100 mg/kg subcutaneous 14 days, 29th day, 32 kHz, 90 dB): 31.272±5.137 uv | CAP amplitude under click ([1]; guinea pigs, 100 mg/kg subcutaneous 14 days, 29th day, click): consistent with the Control group | hearing damage (CAP amplitude) at 32 kHz ([1]; guinea pigs, 100 mg/kg subcutaneous for 14 consecutive days, 29th day, 32 kHz): 74.3% | loss of outer hair cells ([2]; medium and high frequency region (60-100% from the apical turn)): 12-67.7% | loss of inner hair cells ([2]; near the end of the basal turn (100% from the apical turn)): 9.3±4.1% | Damage of inner hair cells on Day 29 [2, 7]: 0% | Damage of outer ear hair cells on Day 29 [2, 7]: 9.5 ± 2.9% | Damage of inner hair cells on Day 29 [2, 8]: 0% | Damage of outer ear hair cells on Day 29 [2, 8]: 4.1 ± 0.7% | Damage of inner hair cells on Day 29 [2, 9]: 0% | Damage of outer ear hair cells on Day 29 [2, 9]: 2.7 ± 0.7% | Damage of inner hair cells on Day 29 [2, 10]: 0% | Damage of outer ear hair cells on Day 29 [2, 10]: 3.2 ± 1.0% | Damage of inner hair cells on Day 29 [2, 11]: 0% | Damage of outer ear hair cells on Day 29 [2, 11]: 3.2 ± 1.5% | Damage of inner hair cells on Day 29 [2, 12]: 0.4 ± 0.4% | Damage of outer ear hair cells on Day 29 [2, 12]: 12.6 ± 5.6% | Damage of inner hair cells on Day 29 [2, 13]: 0.6 ± 0.6% | Damage of outer ear hair cells on Day 29 [2, 13]: 13.6 ± 6.1% | Damage of inner hair cells on Day 29 [2, 14]: 0.2 ± 0.2% | Damage of outer ear hair cells on Day 29 [2, 14]: 12.0 ± 5.4% | Damage of inner hair cells on Day 29 [2, 15]: 2.5 ± 1.7% | Damage of outer ear hair cells on Day 29 [2, 15]: 42.8 ± 8.2% | Damage of inner hair cells on Day 29 [2, 16]: 9.3 ± 4.1% | Damage of outer ear hair cells on Day 29 [2, 16]: 67.7 ± 9.8% | Density of spiral ganglion neurons on Day 29 ([3]; Turn 1 (basal turn)): 4.407 ± 0.517 n/10000 μm^2 | Density of spiral ganglion neurons on Day 29 ([3]; Turn 2): 5.540 ± 0.757 n/10000 μm^2 | Density of spiral ganglion neurons on Day 29 ([3]; Turn 3): 4.604 ± 0.598 n/10000 μm^2 | Density of spiral ganglion neurons on Day 29 ([3]; Turn 4 (apical turn)): 5.259 ± 0.280 n/10000 μm^2 | damage to spiral ganglion neurons (SGN density vs Control group) ([3]; guinea pigs, 100 mg/kg subcutaneous 14 days, FIG. 7): obvious damage in each turn

CCN[C@@H]1C[C@H](N)[C@@H](O[C@H]2OC(CN)=CC[C@H]2N)[C@H](O)[C@H]1O[C@H]1OC[C@](C)(O)[C@H](NC)[C@H]1O [Netilmicin]
CC50 at 43 h [4, 17]: 10.6 mg/mL | CC50 at 43 h [4, 18]: 10.6 mg/mL (≈ 22.4 mM) | Maximum inhibition rate [5]: 48.73%

NCC[C@H](O)C(=O)N[C@@H]1C[C@H](N)[C@@H](O[C@H]2O[C@H](CN)[C@@H](O)[C@H](O)[C@H]2O)[C@H](O)[C@H]1O[C@H]1O[C@H](CO)[C@@H](O)[C@H](N)[C@H]1O [Amikacin]
CC50 at 43 h [4, 17]: 8.16 mg/mL | CC50 at 43 h [4, 18]: 8.16 mg/mL (≈ 13.9 mM) | Maximum inhibition rate [5]: 68.40%

CN[C@@H]1[C@@H](O)[C@@H](O[C@@H]2[C@@H](O)[C@H](O[C@H]3OC(CNCCO)=CC[C@H]3N)[C@@H](N)C[C@H]2NC(=O)[C@@H](O)CCN)OC[C@]1(C)O [Plazomicin]
in vivo activity in lung infection model (bacteria in lung tissue) [6]: good in vivo activity | CAP amplitude under click [1, 19]: caused hearing damage | CAP amplitude at 16 kHz [1, 20]: 282.058±22.569 uv | CAP amplitude at 32 kHz [1, 20]: 62.982±7.561 uv | hearing damage (CAP amplitude) at 16 kHz [1, 20]: 25.9% | hearing damage (CAP amplitude) at 32 kHz [1, 20]: 48.2% | loss of inner hair cells ([2]; guinea pig, in vivo, 29 day): 3.5±3.0% | damage to spiral ganglion neurons (SGN density vs Control group) [3, 19]: decrease in SGN density near the apical turn | CC50 at 43 h [4, 17]: > 10 mg/mL | CC50 at 43 h [4, 18]: 19.5 mg/mL (≈ 33 mM) | toxicity to HK-2 cells compared with Netilmicin and Amikacin [5]: significantly lower than that of Netilmicin and Amikacin | Maximum inhibition rate [5]: 35.98%
